In patent US8377884B2, “Variants of C-type natriuretic peptides” (Biomarin Pharmaceutical Inc., priority 2007, dated 2013):
Like-named read-outs stand apart in the source and are kept apart here. Bridge positions count the residues as written; N and C are the ends. Peptide text beside a SMILES is read from it. * marks the point of attachment. MeO(CH2CH2O)23CH2CH2CO = COCCOCCOCCOCCOCCOCCOCCOCCOCCOCCOCCOCCOCCOCCOCCOCCOCCOCCOCCOCCOCCOCCOCCOCCC(=O)*; CH3O(CH2CH2O)11CH2CH2CO = COCCOCCOCCOCCOCCOCCOCCOCCOCCOCCOCCOCCC(=O)*

Key:
[1] = in vivo; details: male, rat
Description: Studies were conducted in normal rats to evaluate the pharmacokinetics (PK) profile of CNP22 and certain CNP variants and the time courses of plasma cGMP concentration after single intravenous (i.v.) or subcutaneous (s.c.) administration of the CNP peptides. Plasma CNP immunoreactivity was determined by using a competitive radioimmunoassay (RIA) with an anti-CNP rabbit polyclonal antibody. Plasma cGMP concentration was determined by RIA using a commercially available kit (YAMASA cyclic GMP Assay kit, YAMASA Corporation).
Normal male rats, 7-8 weeks of age, were used. Recombinant wild-type CNP22, CNP37 and PEO24-CNP27(Arg4) (i.e., PEO24-GANRR-CNP22(K4R)) were evaluated. A dosage of 20 nmol/kg of each CNP peptide as a solution in 5% mannitol was intravenously injected once into the tail, or a dosage of 50 nmol/kg of each CNP peptide as a solution in 0.03 mol/L acetic acid buffer solution, pH 4.0, containing 1% (w/v) benzyl alcohol and 10% (w/v) sucrose, was subcutaneously injected once into the back.
Plasma CNP immunoreactivity was determined by the competitive RIA using anti-CNP rabbit polyclonal antibody. Standard and QC samples were prepared. Fifty uL of the standard, QC and assay samples were added, respectively, to test tubes containing 50 uL of RIA buffer. Diluted anti-CNP rabbit polyclonal antibody (100 uL) was added to the tubes. All tubes were kept at 4° C. overnight. ^125I-[Tyr^0]-CNP22 solution (100 uL) and rabbit IgG solution (100 uL) were added and left at approximately 4° C. overnight. One milliliter of anti-rabbit IgG goat serum containing 10% polyethylene glycol was added, vortexed and left at approximately 4° C. for at least 1 hour, and then the insoluble fraction was precipitated by centrifugation. After aspiration of the supernatant, the amount of radiation (gamma line) in the sediment was measured by a gamma-counter. Each sample was measured in duplicate, and the mean was adopted as the value determined.
Plasma CNP immunoreactivity was employed for pharmacokinetics (PK) analysis. PK analysis was performed using WINNONLIN® Professional (Pharsight Corporation). The PK profiles of CNP22, CNP37 and PEO24-CNP27(Arg4) after i.v. administration were calculated using PK parameters such as concentration at 0 hour (C0: extrapolation, pmol/mL), total body clearance (CLtot: mL/min/kg), distribution volume at steady state (Vdss: mL/kg), area under the plasma concentration-time curve (AUC: pmol·min/mL), mean residence time (MRT: min), and half-life (T1/2: min). The PK profiles of the CNP peptides after s.c. administration were calculated using PK parameters such as maximum plasma concentration (Cmax: pmol/mL), time to reach Cmax (Tmax: min), area under the plasma concentration-time curve (AUC: pmol·min/mL), mean residence time (MRT: min), and half-life (T1/2: min).

[2] = biological target: neutral endopeptidase (NEP) (Homo sapiens, UniProt P08473); test: in vitro; details: human, pH 7
Sequence of neutral endopeptidase (NEP) (P08473 whole entry): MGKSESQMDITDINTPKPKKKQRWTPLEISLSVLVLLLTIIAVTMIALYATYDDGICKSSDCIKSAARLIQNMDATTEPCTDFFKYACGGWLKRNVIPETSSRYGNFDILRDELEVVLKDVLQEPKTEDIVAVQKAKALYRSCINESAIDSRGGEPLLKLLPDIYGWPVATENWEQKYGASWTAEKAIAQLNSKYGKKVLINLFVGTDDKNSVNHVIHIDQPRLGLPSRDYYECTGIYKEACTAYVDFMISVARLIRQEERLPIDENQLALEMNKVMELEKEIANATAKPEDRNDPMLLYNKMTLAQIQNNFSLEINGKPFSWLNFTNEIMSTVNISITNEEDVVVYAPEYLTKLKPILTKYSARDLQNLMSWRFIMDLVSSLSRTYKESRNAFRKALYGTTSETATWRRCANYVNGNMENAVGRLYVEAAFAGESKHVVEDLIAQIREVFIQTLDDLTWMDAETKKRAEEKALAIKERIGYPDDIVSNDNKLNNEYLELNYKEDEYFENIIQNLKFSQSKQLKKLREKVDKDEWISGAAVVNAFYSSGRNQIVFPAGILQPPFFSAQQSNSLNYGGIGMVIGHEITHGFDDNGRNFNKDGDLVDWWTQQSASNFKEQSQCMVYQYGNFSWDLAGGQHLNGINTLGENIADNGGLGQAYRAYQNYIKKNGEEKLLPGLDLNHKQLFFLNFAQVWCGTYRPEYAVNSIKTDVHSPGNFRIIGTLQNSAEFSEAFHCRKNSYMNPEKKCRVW
Procedure, shortened: (§1)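 Recombinant human NEP (1 ug/mL final) incubated with 100 uM CNP variant in 0.1 M Tris, pH 7, at 37° C for various times, then quenched with EDTA (10 mM final) and heat. Samples reduced and analysed by HPLC and mass spectrometry. Half-life derived from loss of intact variant over time.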

[3] = biological target: T1, NPR-B (Mus musculus, UniProt Q6VVW5); test: Stimulation of cGMP production in NIH3T3 cells; assay type: cell-based, Murine; details: for cGMP response relative to 1 uM CNP22 (%) at 0.01 µM: read-out: cGMP Response rel. to 1 uM CNP22, 10 nM; for cGMP response relative to 1 uM CNP22 (%) at 1 µM: read-out: cGMP Response rel. to 1 uM CNP22, 1 uM
T1 construct: Murine NIH3T3 cells express endogenously the CNP signaling receptor, NPR-B; endogenous in cells; host or cells: NIH3T3 (murine fibroblasts)
T1 sequence (Q6VVW5 17-1047): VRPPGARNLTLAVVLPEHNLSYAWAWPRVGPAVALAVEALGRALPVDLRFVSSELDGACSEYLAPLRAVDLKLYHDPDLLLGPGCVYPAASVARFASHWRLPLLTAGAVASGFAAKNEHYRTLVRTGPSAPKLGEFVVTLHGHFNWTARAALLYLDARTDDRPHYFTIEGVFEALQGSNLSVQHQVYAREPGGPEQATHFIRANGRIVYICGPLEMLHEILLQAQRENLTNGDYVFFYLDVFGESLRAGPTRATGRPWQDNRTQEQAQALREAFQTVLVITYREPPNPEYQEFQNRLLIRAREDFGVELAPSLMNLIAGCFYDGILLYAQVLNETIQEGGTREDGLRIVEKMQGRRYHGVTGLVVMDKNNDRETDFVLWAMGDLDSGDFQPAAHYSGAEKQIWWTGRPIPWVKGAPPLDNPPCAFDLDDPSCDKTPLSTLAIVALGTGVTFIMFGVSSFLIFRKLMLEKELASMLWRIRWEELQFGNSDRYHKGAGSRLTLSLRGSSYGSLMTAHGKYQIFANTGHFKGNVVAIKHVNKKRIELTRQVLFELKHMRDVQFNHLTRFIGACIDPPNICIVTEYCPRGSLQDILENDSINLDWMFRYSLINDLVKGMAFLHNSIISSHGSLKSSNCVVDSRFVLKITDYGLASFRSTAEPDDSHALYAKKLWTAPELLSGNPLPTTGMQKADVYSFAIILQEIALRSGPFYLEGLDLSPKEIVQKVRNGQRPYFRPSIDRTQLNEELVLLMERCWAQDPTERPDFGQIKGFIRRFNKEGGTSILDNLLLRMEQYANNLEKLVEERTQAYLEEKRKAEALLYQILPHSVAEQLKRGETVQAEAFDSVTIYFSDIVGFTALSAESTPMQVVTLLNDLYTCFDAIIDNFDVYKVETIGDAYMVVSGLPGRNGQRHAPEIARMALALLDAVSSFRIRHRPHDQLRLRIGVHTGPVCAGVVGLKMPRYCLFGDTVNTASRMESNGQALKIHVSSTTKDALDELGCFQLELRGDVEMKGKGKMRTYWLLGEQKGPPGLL

[4] = biological target: Recombinant human NEP (Homo sapiens, UniProt P08473); test: In vitro neutral endopeptidase (NEP) cleavage assay
Sequence of Recombinant human NEP (P08473 whole entry): as the sequence (P08473 whole entry) above
Procedure, shortened: as §1

[5] = NIH3T3 cells, 10 nM natriuretic peptide, normalized to cell number and cGMP production with 1 uM wtCNP22
[6] = NIH3T3 cells, 1 uM natriuretic peptide, normalized to cell number and cGMP production with 1 uM wtCNP22
[7] = in vitro NEP cleavage assay, assay period 160 minutes

What does the source list for `CC[C@H](C)[C@@H]1NC(=O)[C@H](CCCNC(=N)N)NC(=O)[C@H](CC(=O)O)NC(=O)[C@H](CC(C)C)NC(=O)[C@H](CCCCN)NC(=O)[C@H](CC(C)C)NC(=O)CNC(=O)[C@H](Cc2ccccc2)NC(=O)[C@@H](NC(=O)CNC(=O)[C@H](CCCNC(=N)N)NC(=O)[C@H](CO)NC(=O)[C@H](CC(C)C)NC(=O)CNC(=O)[C@H](CCCNC(=N)N)NC(=O)[C@H](CCCNC(=N)N)NC(=O)[C@H](CC(N)=O)NC(=O)[C@H](C)NC(=O)CNC(=O)CCOCCOCCOCCOCCOCCOCCOCCOCCOCCOCCOCCOCCOCCOCCOCCOCCOCCOCCOCCOCCOCCOCCOCCOC)CSSC[C@@H](C(=O)O)NC(=O)CNC(=O)[C@H](CC(C)C)NC(=O)CNC(=O)[C@H](CO)NC(=O)[C@H](CCSC)NC(=O)[C@H](CO)NC(=O)CNC1=O` [PEO24-GANRR-CNP22, K4R (CNP27)] ({MeO(CH2CH2O)23CH2CH2CO}-GANRRGLSRGCFGLKLDRIGSMSGLGC-OH; disulfide 11-27)?
half-life ([1]; iv, 20 nmol/kg): 0.372 h; bioavailability ([1]; sc, 50 nmol/kg): 60%; half-life ([1]; sc, 50 nmol/kg): 1.3 h; half-life at 100 uM [2]: > 2.67 h; cGMP response relative to 1 uM CNP22 (%) at 0.01 µM [3, 5]: 28 ± 9%; cGMP response relative to 1 uM CNP22 (%) at 1 µM [3, 6]: 82 ± 18%

Which results are given for `CC[C@@H](C)[C@H]1NC(=O)[C@@H](CCCNC(=N)N)NC(=O)[C@@H](CC(=O)O)NC(=O)[C@@H](CC(C)C)NC(=O)[C@@H](CCCCN)NC(=O)[C@@H](CC(C)C)NC(=O)CNC(=O)[C@@H](Cc2ccccc2)NC(=O)[C@H](NC(=O)CNC(=O)[C@@H](CCCCN)NC(=O)[C@@H](CO)NC(=O)[C@@H](CC(C)C)NC(=O)CN)CSSC[C@H](C(=O)O)NC(=O)CNC(=O)[C@@H](CC(C)C)NC(=O)CNC(=O)[C@@H](CO)NC(=O)[C@@H](CCSC)NC(=O)[C@@H](CO)NC(=O)CNC1=O` [N]?
half-life at 100 uM [2]: > 2.67 h; resistance to NEP cleavage/degradation (in words) [4, 7]: greatest resistance to NEP cleavage; cGMP response relative to 1 uM CNP22 (%) at 0.01 µM ([3]; NIH3T3, […]): 2%; cGMP response relative to 1 uM CNP22 (%) at 1 µM ([3]; NIH3T3, […]): 1%

What does the source list for `CC[C@H](C)[C@@H]1NC(=O)[C@H](CCCNC(=N)N)NC(=O)[C@H](CC(=O)O)NC(=O)[C@H](CC(C)C)NC(=O)[C@H](CCCCN)NC(=O)[C@H](CC(C)C)NC(=O)CNC(=O)[C@H](Cc2ccccc2)NC(=O)[C@@H](NC(=O)CNC(=O)[C@H](CCCNC(=N)N)NC(=O)[C@H](CO)NC(=O)[C@H](CC(C)C)NC(=O)CNC(=O)[C@H](CCCNC(=N)N)NC(=O)CCOCCOCCOCCOCCOCCOCCOCCOCCOCCOCCOCCOC)CSSC[C@@H](C(=O)O)NC(=O)CNC(=O)[C@H](CC(C)C)NC(=O)CNC(=O)[C@H](CO)NC(=O)[C@H](CCSC)NC(=O)[C@H](CO)NC(=O)CNC1=O` [PEO12-R-CNP22, K4R] ({CH3O(CH2CH2O)11CH2CH2CO}-RGLSRGCFGLKLDRIGSMSGLGC-OH; disulfide 7-23)?
half-life at 100 uM [2]: ≥ 2.67 h; resistance to NEP cleavage/degradation (in words) [4]: much more resistant to NEP degradation than CNP22; cGMP response relative to 1 uM CNP22 (%) at 0.01 µM [3, 5]: 23 ± 2%; cGMP response relative to 1 uM CNP22 (%) at 1 µM [3, 6]: 93 ± 19%

For `CC[C@H](C)[C@@H]1NC(=O)[C@H](CCCNC(=N)N)NC(=O)[C@H](CC(=O)O)NC(=O)[C@H](CC(C)C)NC(=O)[C@H](CCCCN)NC(=O)[C@H](CC(C)C)NC(=O)CNC(=O)[C@H](Cc2ccccc2)NC(=O)[C@@H](NC(=O)CNC(=O)[C@H](CCCNC(=N)N)NC(=O)[C@H](CO)NC(=O)[C@H](CC(C)C)NC(=O)CN)CSSC[C@@H](C(=O)O)NC(=O)CNC(=O)[C@H](CC(C)C)NC(=O)CNC(=O)[C@H](CO)NC(=O)[C@H](CCSC)NC(=O)[C@H](CO)NC(=O)[C@H](CC(N)=O)NC1=O` [BJ] (H-GLSRGCFGLKLDRINSMSGLGC-OH; disulfide 6-22 (inferred); N-terminus and C-terminus assumed), which half-life at 100 uM [2] is on record?
The half-life at 100 uM was 2.5 h.

And the “resistance to NEP cleavage/degradation (in words)” value [4, 7]?
The value was “greatest resistance to NEP cleavage”.

And the cGMP response relative to 1 uM CNP22 (%) at 0.01 µM ([3]; NIH3T3, […])?
Its cGMP response relative to 1 uM CNP22 (%) at 0.01 µM is 4%.

And the cGMP response relative to 1 uM CNP22 (%) at 1 µM ([3]; NIH3T3, […])?
The cGMP response relative to 1 uM CNP22 (%) at 1 µM was 41%.

With `CC[C@H](C)[C@@H]1NC(=O)[C@H](CCCNC(=N)N)NC(=O)[C@H](CC(=O)O)NC(=O)[C@H](CC(C)C)NC(=O)[C@H](CCCCN)NC(=O)[C@H](CC(C)C)NC(=O)CNC(=O)[C@H](Cc2cccc(Cl)c2)NC(=O)[C@@H](NC(=O)CNC(=O)[C@H](CCCCN)NC(=O)[C@H](CO)NC(=O)[C@H](CC(C)C)NC(=O)CN)CSSC[C@@H](C(=O)O)NC(=O)CNC(=O)[C@H](CC(C)C)NC(=O)CNC(=O)[C@H](CO)NC(=O)[C@H](CCSC)NC(=O)[C@H](CO)NC(=O)CNC1=O` [G] as the compound, how does the half-life at 100 uM [2] read?
The half-life at 100 uM was 2.25 h.

What about the “half-life in comparison to wtCNP22” value ([4]; NEP at 1 ug/ml) of the same compound?
The value was “about 1.5 times”.

And the “resistance to cleavage at the Cys6-Phe7 bond relative to wtCNP22” value ([4]; data not shown)?
Its value is “resistance or improved resistance”.

And the “resistance to cleavage of the Gly8-Leu9 bond” value ([4]; in the presence of 1 ug/mL NEP, data not shown)?
The value was “exhibited resistance”.

What about the cGMP response relative to 1 uM CNP22 (%) at 0.01 µM ([3]; NIH3T3, […]) of the same compound?
The cGMP response relative to 1 uM CNP22 (%) at 0.01 µM was 17%.

And the cGMP response relative to 1 uM CNP22 (%) at 1 µM ([3]; NIH3T3, […])?
Its cGMP response relative to 1 uM CNP22 (%) at 1 µM is 93%.
